The record followed here is EPA's ToxValDB 9.5 (doi:10.2903/j.efsa.2009.1167).

One data set has as its system Canidae. Particulars: chronic, Dog Other.
For a further data set, the system named is Mus musculus. Particulars: chronic; duration: 18 months; organ weight.
The mark [1] stands for this setting: chronic, duration: 2 years, histopathology: nonneoplastic.
Setting [2] is: reproduction developmental, reproduction.

With `CC(C)(C)C(O)(CCc1ccc(Cl)cc1)Cn1cncn1` (stereo not given) [Tebuconazole], the no observed adverse effect level (NOAEL) (usually the highest tested level that showed no adverse finding) with Canidae (histopathology: nonneoplastic) was 3 mg/kg-day.
Turning to `CC(C)(C)[C@@H](O)/C(=C\c1ccc(Cl)cc1Cl)n1cncn1` [Diniconazole-M], the no-observed-adverse-effect level (NOAEL) with Rattus norvegicus (setting [1]) came to 5 mg/kg-day; in the data set on Rattus norvegicus (developmental, development) it was 5 mg/kg-day.
For the molecule `Fc1ccc([C@@]2(Cn3cncn3)O[C@@H]2c2ccccc2Cl)cc1` [Epoxiconazole], the NOAEL with Rattus norvegicus (setting [2]) amounted to 2.3 mg/kg-day; in the data set with Mus musculus, 0.8 mg/kg-day.
As to `CC(C1CC1)C(O)(Cn1cncn1)c1ccc(Cl)cc1` (stereo not given) [Cyproconazole], the NOAEL worked out at 2 mg/kg-day with Rattus norvegicus (chronic, organ weight) and 2 mg/kg-day with Rattus norvegicus (developmental, development).
In the case of `CCCC1COC(Cn2cncn2)(c2ccc(Cl)cc2Cl)O1` (stereo not given) [Propiconazole], the NOAEL in the data set on Rattus norvegicus (developmental, development) was 30 mg/kg-day; with Rattus norvegicus (setting [2]) it was over 2.8 mg/kg-day.
`CC(C)(C)C(O)C(Oc1ccc(Cl)cc1)n1cncn1` (stereo not given) [Triadimenol] returned an NOAEL in the data set with Canidae (duration: 2 years) of 4 mg/kg-day.
For `CCCCC(C#N)(Cn1cncn1)c1ccc(Cl)cc1` (stereo not given) [Myclobutanil], in the data set with Rattus norvegicus (setting [1]), the NOAEL was found to be 2.5 mg/kg-day.
Take `C[Si](Cn1cncn1)(c1ccc(F)cc1)c1ccc(F)cc1` [Flusilazole]: the no observed adverse effect level (NOAEL) in the data set with Rattus norvegicus (reproduction developmental, organ weight) turned out to be 0.5 mg/kg-day; with Canidae (duration: 1 years), 0.2 mg/kg-day.
Consider `CC(C)(C)C(=O)C(Oc1ccc(Cl)cc1)n1cncn1` (stereo not given) [Triadimefon], for which the NOAEL in the data set with Rattus norvegicus (acute) stood at 2 mg/kg-day; with Rattus norvegicus (subchronic, duration: 13 weeks), 3.4 mg/kg-day.
